Experimental data as given in patent US20250152553A1, “CARBAMOTHIOATE, AND CARBAMODITHIOATE DERIVATIVES OF MDMA, MDA OR ITS OPTICALLY ACTIVE (R)- OR (S)-MDMA AND MDA ISOMERS” (EmpathBio, Inc., priority 2023, published 2025).
In brackets after ≈: the same amount, converted by molar mass.

How the values were obtained:
[1] = Chemical stability in PBS pH 6.5; format: physicochemical; conditions: for half-life: PBS pH 6.5; for Remaining Percentage (%) 0 min: PBS pH 6.5, 0 min; for Remaining Percentage (%) 30 min: PBS pH 6.5, 30 min; for Remaining Percentage (%) 60 min: PBS pH 6.5, 60 min; for Remaining Percentage (%) 120 min: PBS pH 6.5, 120 min; for Remaining Percentage (%) 240 min: PBS pH 6.5, 240 min
[2] = Plasma stability in mouse plasma; format: in vitro ADME; conditions: for half-life at 1 μM: test concentration 1 μM
Solubility in FaSSIF = format: physicochemical; conditions: read-out: SOL (μM) FaSSIF

| Structure (SMILES) | half-life [1] | Remaining Percentage (%) 0 min [1] | Remaining Percentage (%) 30 min [1] | Remaining Percentage (%) 60 min [1] | Remaining Percentage (%) 120 min [1] | Remaining Percentage (%) 240 min [1] | Remaining Percentages (%) 0 min ([2]; 5 μM) | Remaining Percentages (%) 30 min ([2]; 5 μM) | Remaining Percentages (%) 120 min ([2]; 5 μM) | half-life at 5 μM ([2]; test concentration 5 μM (control)) | solubility (Solubility in FaSSIF) | Remaining Percentages (%) 0 min ([2]; 1 μM) | Remaining Percentages (%) 15 min ([2]; 1 μM) | Remaining Percentages (%) 30 min ([2]; 1 μM) | Remaining Percentages (%) 60 min ([2]; 1 μM) | Remaining Percentages (%) 120 min ([2]; 1 μM) | half-life at 1 μM [2] |
| --- | --- | --- | --- | --- | --- | --- | --- | --- | --- | --- | --- | --- | --- | --- | --- | --- | --- |
| O=C(O)Cc1ccccc1Nc1c(Cl)cccc1Cl [Diclofenac, reference compound] | 0.695 h | 100.00% | 60.68% | 35.44% | 13.15% | 1.85% | 100% | 58.97% | 10.45% | 0.594 h | – | – | – | – | – | – | – |
| COC(=S)N(C)C(C)Cc1ccc2c(c1)OCO2 (stereo not shown) [Prodrug 1, O-methyl (1-(benzo[d][1,3]dioxol-5-yl)propan-2-yl)(methyl)carbamothioate] | > 17.1 h | 100.00% | 95.62% | 102.35% | 93.11% | 106.73% | – | – | – | – | 278 µM (≈ 74.4 µg/mL) | 100% | 108.17% | 96.20% | 103.37% | 100.00% | > 8.52 h |
| COC(=S)NC(C)Cc1ccc2c(c1)OCO2 (stereo not shown) [Prodrug 2, O-methyl (1-(benzo[d][1,3]dioxol-5-yl)propan-2-yl)carbamothioate] | > 17.1 h | 100.00% | 105.00% | 100.45% | 102.27% | 105.00% | – | – | – | – | 279 µM (≈ 70.8 µg/mL) | 100% | 101.54% | 99.62% | 96.35% | 91.94% | > 8.52 h |
| CCOC(=S)N(C)C(C)Cc1ccc2c(c1)OCO2 (stereo not shown) [Prodrug 3, O-ethyl (1-(benzo[d][1,3]dioxol-5-yl)propan-2-yl)(methyl)carbamothioate] | > 17.1 h | 100.00% | 100.73% | 95.33% | 99.99% | 91.16% | – | – | – | – | 131 µM (≈ 36.9 µg/mL) | 100% | 106.31% | 97.30% | 97.75% | 96.85% | > 8.52 h |
| CCOC(=S)NC(C)Cc1ccc2c(c1)OCO2 (stereo not shown) [Prodrug 4, O-ethyl (1-(benzo[d][1,3]dioxol-5-yl)propan-2-yl)carbamothioate] | > 17.1 h | 100.00% | 103.44% | 100.85% | 94.76% | 94.28% | – | – | – | – | 60.3 µM (≈ 16.1 µg/mL) | 100% | 100.00% | 100.28% | 97.80% | 95.32% | > 8.52 h |
| CSC(=O)N(C)C(C)Cc1ccc2c(c1)OCO2 (stereo not shown) [Prodrug 5, S-methyl (1-(benzo[d][1,3]dioxol-5-yl)propan-2-yl)(methyl)carbamothioate] | > 17.1 h | 100.00% | 91.67% | 104.03% | 96.42% | 91.92% | – | – | – | – | 308 µM (≈ 82.3 µg/mL) | 100% | 100.78% | 98.96% | 100.78% | 94.52% | > 8.52 h |
| CSC(=O)NC(C)Cc1ccc2c(c1)OCO2 (stereo not shown) [Prodrug 6, S-methyl (1-(benzo[d][1,3]dioxol-5-yl)propan-2-yl)carbamothioate] | > 17.1 h | 100.00% | 93.08% | 91.55% | 88.38% | 88.38% | – | – | – | – | 293 µM (≈ 74.1 µg/mL) | 100% | 99.73% | 103.77% | 102.16% | 90.30% | > 8.52 h |
| CCSC(=O)N(C)C(C)Cc1ccc2c(c1)OCO2 (stereo not shown) [Prodrug 7, S-ethyl (1-(benzo[d][1,3]dioxol-5-yl)propan-2-yl)(methyl)carbamothioate] | > 17.1 h | 100.00% | 99.17% | 97.73% | 95.86% | 103.73% | – | – | – | – | 291 µM (≈ 82 µg/mL) | 100% | 110.62% | 111.95% | 113.27% | 102.65% | > 8.52 h |
| CCSC(=O)NC(C)Cc1ccc2c(c1)OCO2 (stereo not shown) [Prodrug 8, S-ethyl (1-(benzo[d][1,3]dioxol-5-yl)propan-2-yl)carbamothioate] | > 17.1 h | 100.00% | 113.02% | 100.82% | 102.82% | 114.28% | – | – | – | – | 288 µM (≈ 77.1 µg/mL) | 100% | 110.30% | 106.34% | 105.81% | 101.19% | > 8.52 h |
| CSC(=S)N(C)C(C)Cc1ccc2c(c1)OCO2 (stereo not shown) [Prodrug 9, methyl (1-(benzo[d][1,3]dioxol-5-yl)propan-2-yl)(methyl)carbamodithioate] | > 17.1 h | 100.00% | 97.22% | 96.84% | 107.55% | 89.55% | – | – | – | – | 30.4 µM (≈ 8.63 µg/mL) | 100% | 101.32% | 96.64% | 98.79% | 97.14% | > 8.52 h |
| CSC(=S)NC(C)Cc1ccc2c(c1)OCO2 (stereo not shown) [Prodrug 10, methyl (1-(benzo[d][1,3]dioxol-5-yl)propan-2-yl)carbamodithioate] | > 17.1 h | 100.00% | 96.55% | 105.17% | 109.86% | 113.62% | – | – | – | – | 306 µM (≈ 82.5 µg/mL) | 100% | 100.89% | 98.00% | 100.22% | 89.09% | > 8.52 h |
| CCSC(=S)N(C)C(C)Cc1ccc2c(c1)OCO2 (stereo not shown) [Prodrug 11, ethyl (1-(benzo[d][1,3]dioxol-5-yl)propan-2-yl)(methyl)carbamodithioate] | > 17.1 h | 100.00% | 95.01% | 93.41% | 96.45% | 94.38% | – | – | – | – | 63.7 µM (≈ 19 µg/mL) | 100% | 97.92% | 101.25% | 94.58% | 94.17% | > 8.52 h |
| CCSC(=S)NC(C)Cc1ccc2c(c1)OCO2 (stereo not shown) [Prodrug 12, ethyl (1-(benzo[d][1,3]dioxol-5-yl)propan-2-yl)carbamodithioate] | > 17.1 h | 100.00% | 102.94% | 99.30% | 104.13% | 100.98% | – | – | – | – | 252 µM (≈ 71.3 µg/mL) | 100% | 101.19% | 92.04% | 92.28% | 89.25% | > 8.52 h |
